Data set [1] in a line: in vitro. Conditions: human, Caco-2.
Data set [2] is described as follows: in vitro. To be noted: human, Caco-2. The source holds these as a separate data set.
Data set [3] in a line: in vitro. Conditions: human, Caco-2. This is another data set of the same source.
Data set [4] in a line: in vitro. Conditions: human, Caco-2. The source holds these as a separate data set.
Data set [5] has as its system Rattus norvegicus. Kind of data set: Cmax in Sprague-Dawley rat assessed as 3-(2,5-Dichloro-4-((3-(4-cyclopropyl-1,2,3,4-tetrahydroquinoxaline-1-carbonyl)pyridin-4-yl)oxy)phenyl)propanoic acid level at 5 mg/kg, po by LC-MS/MS method. It counts as ADME, organism-based. Further details: dose 5 mg/kg, route oral. To be noted: in vivo.
Data set [6] can be described thus: AUC (0 to infinity) in Sprague-Dawley rat at 5 mg/kg, po by LC-MS/MS method. It counts as ADME, organism-based. Further details: time infinity, dose 5 mg/kg, route oral. To be noted: plasma.
The nature of data set [7]: Cmax in Sprague-Dawley rat at 5 mg/kg, po by LC-MS/MS method. The data set is classed as ADME, organism-based. Further details: dose 5 mg/kg, route oral. Conditions: in vivo.
Data set [8] has as its system Rattus norvegicus. As to the kind of experiment: AUC (0 to t) in Sprague-Dawley rat assessed as 3-(2,5-Dichloro-4-((3-(4-cyclopropyl-1,2,3,4-tetrahydroquinoxaline-1-carbonyl)pyridin-4-yl)oxy)phenyl)propanoic acid level at 5 mg/kg, po by LC-MS/MS method. To be noted: in vivo. Also noted: dose 5 mg/kg, route oral. It counts as ADME, organism-based, Plasma.
Data set [9] is described as follows: Half life in Sprague-Dawley rat at 5 mg/kg, po by LC-MS/MS method. It counts as ADME, organism-based. Also noted: dose 5 mg/kg, route oral. To be noted: in vivo.
Data set [10] deals with Rattus norvegicus. Kind of data set: Mean residence time in Sprague-Dawley rat assessed as 3-(2,5-Dichloro-4-((3-(4-cyclopropyl-1,2,3,4-tetrahydroquinoxaline-1-carbonyl)pyridin-4-yl)oxy)phenyl)propanoic acid level at 5 mg/kg, po by LC-MS/MS method. The data set is classed as ADME, organism-based. Also noted: dose 5 mg/kg, route oral. Conditions: in vivo.
In data set [11] the test system is Rattus norvegicus. As to the kind of experiment: Tmax in Sprague-Dawley rat assessed as 3-(2,5-Dichloro-4-((3-(4-cyclopropyl-1,2,3,4-tetrahydroquinoxaline-1-carbonyl)pyridin-4-yl)oxy)phenyl)propanoic acid level at 5 mg/kg, po by LC-MS/MS method. The data set is classed as ADME, organism-based. Further details: dose 5 mg/kg, route oral. To be noted: in vivo.
In data set [12] the test system is Rattus norvegicus. Kind of data set: AUC (0 to infinity) in Sprague-Dawley rat assessed as 3-(2,5-Dichloro-4-((3-(4-cyclopropyl-1,2,3,4-tetrahydroquinoxaline-1-carbonyl)pyridin-4-yl)oxy)phenyl)propanoic acid level at 5 mg/kg, po by LC-MS/MS method. It counts as ADME, organism-based, Plasma. Further details: time infinity, dose 5 mg/kg, route oral. To be noted: in vivo.

The nature of data set [13]: Tmax in Sprague-Dawley rat at 5 mg/kg, po by LC-MS/MS method. The data set is classed as ADME, organism-based. Further details: dose 5 mg/kg, route oral. Conditions: in vivo.
A short description of data set [14]: AUC (0 to t) in Sprague-Dawley rat at 5 mg/kg, po by LC-MS/MS method. It counts as ADME, organism-based. To be noted: plasma. Also noted: dose 5 mg/kg, route oral.
For data set [15], the system named is Rattus norvegicus. Kind of data set: Half life in Sprague-Dawley rat assessed as 3-(2,5-Dichloro-4-((3-(4-cyclopropyl-1,2,3,4-tetrahydroquinoxaline-1-carbonyl)pyridin-4-yl)oxy)phenyl)propanoic acid level at 5 mg/kg, po by LC-MS/MS method. It counts as ADME, organism-based. Further details: dose 5 mg/kg, route oral. Conditions: in vivo.
A short description of data set [16]: Mean residence time in Sprague-Dawley rat at 5 mg/kg, po by LC-MS/MS method. Further details: dose 5 mg/kg, route oral. Conditions: in vivo. The data set is classed as ADME, organism-based.
Data set [17] in a line: Drug level in ICR mouse plasma at 150 mg/kg, po after 3.5 hrs by LC-MS/MS method. The data set is classed as ADME, organism-based. Further details: dose 150 mg/kg, route oral.
In data set [18] the test system is Rattus norvegicus. Kind of data set: Drug metabolism in Sprague-Dawley rat assessed as 3-(2,5-Dichloro-4-((3-(4-cyclopropyl-1,2,3,4-tetrahydroquinoxaline-1-carbonyl)pyridin-4-yl)oxy)phenyl)propanoic acid level at 20 mg/kg, po after 15 mins to 24 hrs by LC-MS/MS method. It counts as ADME, organism-based. Also noted: dose 20 mg/kg, route oral. To be noted: in vivo.

A short description of data set [19]: Drug level in ICR mouse gall bladder at 150 mg/kg, po after 4 hrs by LC-MS/MS method. The data set is classed as ADME, organism-based. Further details: dose 150 mg/kg, route oral. To be noted: in vivo.
The nature of data set [20]: Drug level in ICR mouse plasma at 150 mg/kg, po after 2.5 hrs by LC-MS/MS method. The data set is classed as ADME, organism-based. Further details: dose 150 mg/kg, route oral.
In data set [21] the test system is Rattus norvegicus. As to the kind of experiment: Drug level in Sprague-Dawley rat at 20 mg/kg, po after 15 mins to 24 hrs by LC-MS/MS method. Conditions: in vivo. It counts as ADME, organism-based. Further details: dose 20 mg/kg, route oral.
A short description of data set [22]: Drug level in ICR mouse gall bladder at 150 mg/kg, po after 3.5 hrs by LC-MS/MS method. The data set is classed as ADME, organism-based. Also noted: dose 150 mg/kg, route oral. Conditions: in vivo.
Data set [23] in a line: Drug level in ICR mouse bile at 150 mg/kg, po after 3.5 hrs by LC-MS/MS method. It counts as ADME, organism-based. Also noted: dose 150 mg/kg, route oral. Conditions: read-out: Drug uptake.
Data set [24] in a line: Drug level in ICR mouse plasma at 150 mg/kg, po after 2 hrs by LC-MS/MS method. Also noted: dose 150 mg/kg, route oral. The data set is classed as ADME, organism-based.
Data set [25] can be described thus: Drug metabolism in ICR mouse gall bladder assessed as 3-(2,5-Dichloro-4-((3-(4-cyclopropyl-1,2,3,4-tetrahydroquinoxaline-1-carbonyl)pyridin-4-yl)oxy)phenyl)propanoic acid level at 150 mg/kg, po after 4 hrs by LC-MS/MS method. It counts as ADME, organism-based. Also noted: dose 150 mg/kg, route oral. Conditions: in vivo.
The nature of data set [26]: Drug level in ICR mouse gall bladder at 150 mg/kg, po after 2.5 hrs by LC-MS/MS method. The data set is classed as ADME, organism-based. Also noted: dose 150 mg/kg, route oral. To be noted: in vivo.
Data set [27] is described as follows: Drug level in ICR mouse gall bladder at 150 mg/kg, po after 2 hrs by LC-MS/MS method. To be noted: in vivo. Also noted: dose 150 mg/kg, route oral. It counts as ADME, organism-based.
The nature of data set [28]: Drug level in ICR mouse bile at 150 mg/kg, po after 2 hrs by LC-MS/MS method. Also noted: dose 150 mg/kg, route oral. The data set is classed as ADME, organism-based. To be noted: read-out: Drug uptake.
Data set [29] in a line: Drug level in ICR mouse bile at 150 mg/kg, po after 2.5 hrs by LC-MS/MS method. The data set is classed as ADME, organism-based. Further details: dose 150 mg/kg, route oral. Conditions: read-out: Drug uptake.

In the case of `O=C(c1cnccc1Oc1cc(Cl)ccc1Cl)N1CCN(C2CC2)c2ccccc21`, the recovery at 20 µM in “in vitro [1]” is 69.4%; in “in vitro [3]”, 46.8%. Besides, the Papp B→A – broadly, how fast a substance crosses the layer from the basolateral side – at 20 µM in “in vitro [2]” was found to be 5.58 ×10⁻⁶ cm/s. Further, the apparent permeability from apical to basolateral (Papp A→B) – broadly, how fast a substance crosses the layer from the apical side – at 20 µM in the data set “in vitro [4]” was 6.75 ×10⁻⁶ cm/s.

Turning to `O=C(O)CNC(=O)CCc1cc(Cl)c(Oc2ccncc2C(=O)N2CCN(C3CC3)c3ccccc32)cc1Cl`, the highest concentration (Cmax) (commonly the peak of the concentration-time curve) in the data set on Rattus norvegicus [5] stood at 15.5 ng/mL; in data set [7], 13.5 ng/mL. Also, the AUC(0-inf) (in general, the area under the concentration-time curve extrapolated to infinity) in data set [6] amounted to 39.7 ng·h/mL. Also, in the data set with Rattus norvegicus [8], the AUCt turned out to be 84.9 ng·h/mL. Moreover, the half-life – broadly, the time needed for the level to fall by half in the phase considered – in data set [9] was 1.56 h. In addition, the values for the MRT (with Rattus norvegicus [10]; in [16]) were 5.47 h and 2.37 h, respectively. Also, the results for the Tmax (in the data set on Rattus norvegicus [11]; in data set [13]) were 3.5 h and 0.44 h, respectively. In the data set with Rattus norvegicus [12], the AUC (as a rule, concentration integrated over time) came to 241 ng·h/mL. In data set [14], the exposure AUC(0-t) (as a rule, the area under the concentration-time curve up to a stated or last time point) is 23.9 ng·h/mL. In addition, in the data set on Rattus norvegicus [15], the t1/2 stood at 1.77 h.

Consider `O=C(CCc1cc(Cl)c(Oc2ccncc2C(=O)N2CCN(C3CC3)c3ccccc32)cc1Cl)NCCOCCOCCOCCOCCOCCOCCOCCOCCNC(=O)CCc1cc(Cl)c(Oc2ccncc2C(=O)N2CCN(C3CC3)c3ccccc32)cc1Cl`, for which the concentration at 3.5 h came out at 2.9 nM in [17] and 3.8 nM in [23]. Moreover, the recovery at 20 µM is 91.2% in the data set “in vitro [1]” and 99.5% in “in vitro [3]”. Also, the Drug metabolism entry (with Rattus norvegicus [18]; in data set [25]) was “metabolite_notdetected” each time. In addition, the Drug uptake in data set [19] is less than 3 ng; in the data set on Rattus norvegicus [21], less than 3 ng/mL; in data set [22] it was “Not Active”; in [26], “Not Active”; in [27] it was “Not Active”. The concentration at 2.5 h in data set [20] stood at 6.9 nM; in [29] it was 3.5 nM. In the data set “in vitro [2]”, this compound returned a basolateral-to-apical permeability (Papp B→A) at 20 µM of 2.24 ×10⁻⁶ cm/s. In the data set “in vitro [4]”, this compound gave an apical-to-basolateral permeability (Papp A→B) at 20 µM of 0.04 ×10⁻⁶ cm/s. Also, the results for the concentration at 2 h in data set [24] and in data set [28] were 4.4 nM and 3.6 nM, respectively.

For `C[C@H]1O[C@@H](O[C@H]2[C@@H](O)C[C@H](O[C@H]3[C@@H](O)C[C@H](O[C@H]4CC[C@@]5(C)[C@H](CC[C@@H]6[C@@H]5C[C@@H](O)[C@]5(C)[C@@H](C7=CC(=O)OC7)CC[C@]65O)C4)O[C@@H]3C)O[C@@H]2C)C[C@H](O)[C@@H]1O` [DIGOXIN], the recovery at 20 µM in “in vitro [1]” came out at 95.8%; in the data set “in vitro [3]” it was 101%. The compound further returned a Papp B→A at 20 µM in the data set “in vitro [2]” of 15.8 ×10⁻⁶ cm/s. This compound also gave a Papp A→B at 20 µM in the data set “in vitro [4]” of 0.1 ×10⁻⁶ cm/s.
